Experimental data taken from ChEMBL document CHEMBL2163227, “Synthesis and biological characterization of a series of novel diaryl amide M₁ antagonists” (Bioorg Med Chem Lett, 2012).
Calls of active or inactive are those of the source. The calls are words filed in the database; no cut-off is given here.

Experiments:
[1] = molecular target: T1, Muscarinic acetylcholine receptor M1 (Homo sapiens) (UniProt P11229); experiment: (§1) Antagonist activity at human muscarinic M1 receptor; type: functional; set-up: concentration or dose not given beside the values
T1 sequence (whole entry): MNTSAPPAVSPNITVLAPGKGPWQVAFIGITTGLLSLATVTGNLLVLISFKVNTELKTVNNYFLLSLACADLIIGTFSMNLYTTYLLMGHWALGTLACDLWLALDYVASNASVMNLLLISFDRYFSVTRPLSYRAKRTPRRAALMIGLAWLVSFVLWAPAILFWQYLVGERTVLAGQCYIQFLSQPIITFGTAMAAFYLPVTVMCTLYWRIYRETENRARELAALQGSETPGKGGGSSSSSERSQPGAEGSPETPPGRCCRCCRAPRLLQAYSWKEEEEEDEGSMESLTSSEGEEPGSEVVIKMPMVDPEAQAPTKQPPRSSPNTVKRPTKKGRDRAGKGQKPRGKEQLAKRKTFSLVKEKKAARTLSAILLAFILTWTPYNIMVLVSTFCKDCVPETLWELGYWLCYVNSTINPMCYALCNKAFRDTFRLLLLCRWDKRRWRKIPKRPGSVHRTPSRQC

[2] = molecular target: T2, Muscarinic acetylcholine receptor M1 (Homo sapiens, UniProt P11229); experiment: as §1; type: functional
T2 sequence (P11229 whole entry): T1 sequence (whole entry)

[3] = molecular target: T1, Muscarinic acetylcholine receptor M1 (Homo sapiens); experiment: Antagonist activity at human muscarinic M1 receptor at 30 uM; type: functional
[4] = molecular target: T1, Muscarinic acetylcholine receptor M1 (Homo sapiens); experiment: Antagonist activity at human muscarinic M1 receptor expressed in CHO cells assessed as inhibition of Ach-mediated response by calcium mobilization assay; type: functional, cell-based
[5] = molecular target: T3, Muscarinic acetylcholine receptor M5 (Homo sapiens, UniProt P08912); experiment: Antagonist activity at human muscarinic M5 receptor by calcium mobilization assay; type: functional
T3 sequence (P08912 whole entry): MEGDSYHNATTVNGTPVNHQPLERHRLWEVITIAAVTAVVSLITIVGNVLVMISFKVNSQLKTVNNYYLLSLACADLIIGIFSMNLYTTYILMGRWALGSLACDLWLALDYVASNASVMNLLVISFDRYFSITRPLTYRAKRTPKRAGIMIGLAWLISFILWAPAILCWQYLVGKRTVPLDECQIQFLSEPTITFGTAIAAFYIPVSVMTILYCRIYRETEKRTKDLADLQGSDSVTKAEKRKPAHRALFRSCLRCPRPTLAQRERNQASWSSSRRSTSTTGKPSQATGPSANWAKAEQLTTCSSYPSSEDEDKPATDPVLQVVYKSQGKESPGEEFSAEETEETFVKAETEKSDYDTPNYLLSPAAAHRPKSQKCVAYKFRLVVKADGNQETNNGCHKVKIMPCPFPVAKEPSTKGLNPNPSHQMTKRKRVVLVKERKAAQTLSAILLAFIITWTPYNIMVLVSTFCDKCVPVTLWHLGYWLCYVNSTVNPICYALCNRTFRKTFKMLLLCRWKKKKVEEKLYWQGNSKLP

[6] = molecular target: T4, Muscarinic acetylcholine receptor M4 (Homo sapiens, UniProt P08173); experiment: Antagonist activity at human muscarinic M4 receptor by calcium mobilization assay; type: functional
T4 sequence (P08173 whole entry): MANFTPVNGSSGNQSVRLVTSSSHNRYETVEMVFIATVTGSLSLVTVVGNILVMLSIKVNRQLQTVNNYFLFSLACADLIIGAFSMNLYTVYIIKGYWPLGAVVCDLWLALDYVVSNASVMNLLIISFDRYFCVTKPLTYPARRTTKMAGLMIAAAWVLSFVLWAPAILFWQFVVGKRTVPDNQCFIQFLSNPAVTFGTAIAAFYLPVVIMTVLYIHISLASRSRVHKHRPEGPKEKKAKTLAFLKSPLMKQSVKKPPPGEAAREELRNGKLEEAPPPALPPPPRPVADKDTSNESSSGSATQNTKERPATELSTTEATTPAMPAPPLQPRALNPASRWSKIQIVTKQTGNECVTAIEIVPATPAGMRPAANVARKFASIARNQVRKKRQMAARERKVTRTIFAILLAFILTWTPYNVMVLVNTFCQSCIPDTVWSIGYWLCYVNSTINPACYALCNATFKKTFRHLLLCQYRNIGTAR

[7] = molecular target: T5, Muscarinic acetylcholine receptor M2 (Homo sapiens, UniProt P08172); experiment: Antagonist activity at human muscarinic M2 receptor by calcium mobilization assay; type: functional
T5 sequence (P08172 whole entry): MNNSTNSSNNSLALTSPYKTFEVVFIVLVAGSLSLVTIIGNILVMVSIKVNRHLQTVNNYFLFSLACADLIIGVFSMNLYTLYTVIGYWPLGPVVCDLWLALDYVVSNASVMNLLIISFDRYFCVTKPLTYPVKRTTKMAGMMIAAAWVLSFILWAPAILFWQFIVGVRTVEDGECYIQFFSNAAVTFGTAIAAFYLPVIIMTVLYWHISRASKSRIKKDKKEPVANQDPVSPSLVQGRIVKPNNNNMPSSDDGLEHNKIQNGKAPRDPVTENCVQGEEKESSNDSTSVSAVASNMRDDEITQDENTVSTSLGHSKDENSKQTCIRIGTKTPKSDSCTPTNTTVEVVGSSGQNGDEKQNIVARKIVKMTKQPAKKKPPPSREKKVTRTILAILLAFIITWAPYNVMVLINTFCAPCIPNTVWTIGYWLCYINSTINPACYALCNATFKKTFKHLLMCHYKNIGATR

[8] = molecular target: Muscarinic acetylcholine receptor M3 (Homo sapiens, UniProt P20309); experiment: Antagonist activity at human muscarinic M3 receptor by calcium mobilization assay; type: functional
Chain of Muscarinic acetylcholine receptor M3 (P20309 whole entry): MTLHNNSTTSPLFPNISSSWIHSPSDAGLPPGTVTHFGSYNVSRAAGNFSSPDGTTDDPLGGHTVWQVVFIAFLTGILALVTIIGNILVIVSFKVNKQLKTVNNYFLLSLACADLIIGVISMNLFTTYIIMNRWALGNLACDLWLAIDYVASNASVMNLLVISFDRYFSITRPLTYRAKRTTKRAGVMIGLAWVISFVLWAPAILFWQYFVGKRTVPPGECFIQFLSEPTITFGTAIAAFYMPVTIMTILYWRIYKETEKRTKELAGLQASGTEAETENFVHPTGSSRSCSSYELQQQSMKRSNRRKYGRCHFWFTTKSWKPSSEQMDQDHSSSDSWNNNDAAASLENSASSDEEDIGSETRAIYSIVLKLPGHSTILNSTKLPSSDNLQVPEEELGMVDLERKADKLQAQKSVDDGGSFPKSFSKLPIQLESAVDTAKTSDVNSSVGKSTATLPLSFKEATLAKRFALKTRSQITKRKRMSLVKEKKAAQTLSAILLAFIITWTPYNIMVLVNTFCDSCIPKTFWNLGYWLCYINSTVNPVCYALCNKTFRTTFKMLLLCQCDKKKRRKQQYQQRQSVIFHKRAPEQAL

CC(C)N1CCCN(C(=O)C(Cc2ccccc2)c2ccccc2)CC1 (configuration not stated)
Activity [1]: 2.4%
IC50 ([2]; read-out: IC50): 0.1 µM

CN1CCN(C(=O)/C(=C\c2ccccc2)c2ccccc2)CC1
IC50 ([2]; read-out: IC50): 0.18 µM

CN1CCN(C(=O)C(Cc2ccccc2)c2ccccc2)CC1 (racemic)
Activity [1]: 2.4%
IC50 ([2]; read-out: IC50): 0.044 µM

CN1CCN(C(=O)[C@H](Oc2ccccc2)c2ccccc2)CC1 (mixture of isomers)
Activity [1]: 3.4%
IC50 ([2]; read-out: IC50): 0.24 µM

CN1CCN(C(=O)C(Cc2ccncc2)c2ccccc2)CC1 (configuration not stated)
Activity [1]: 3.5%
IC50 ([2]; read-out: IC50): 0.88 µM

CN1CCN(C(=O)C(Cc2ccccc2)c2ccccc2)CC1c1ccccc1 (configuration not stated)
Activity [1]: 62.8%
IC50 ([2]; read-out: IC50): > 10 µM
Activity [3]: inactive

CN1CCCN(C(=O)C(Cc2ccccc2)c2ccccc2)CC1 (configuration not stated)
Activity [1]: 2%
IC50 ([2]; read-out: IC50): 0.1 µM

O=C(C(Cc1ccccc1)c1ccccc1)N1CCC(N2CCCC2)CC1 (configuration not stated)
Activity [1]: 3.5%
IC50 ([2]; read-out: IC50): 3.8 µM

CC(C)N1CCN(C(=O)C(Cc2ccccc2)c2ccccc2)CC1 (configuration not stated)
Activity [1]: 1.3%
IC50 ([2]; read-out: IC50): 0.44 µM

O=C(C(Cc1ccccc1)c1ccccc1)N1CC[C@H]2CCCN2CC1 (some centres not stated)
Activity [1]: 6.43%
IC50 ([2]; read-out: IC50): 0.37 µM
IC50 ([2]; read-out: pIC50 (converted)): 2.14 µM

CN1CCN(C(=O)C(Cc2cccnc2)c2ccccc2)CC1 (configuration not stated)
Activity [1]: 1.1%
IC50 ([2]; read-out: IC50): 0.5 µM

CN1CCN(C(=O)C2(c3ccccc3)CC2c2ccccc2)CC1 (configuration not stated)
IC50 ([2]; read-out: IC50): 2.5 µM

CN1CCN(C(=O)[C@@H](Oc2ccccc2)c2ccccc2)CC1 (racemic)
Activity [1]: 107%
IC50 ([2]; read-out: IC50): > 10 µM

CCN1CCCN(C(=O)C(Cc2ccccc2)c2ccccc2)CC1 (configuration not stated)
Activity [1]: 2.2%
IC50 ([2]; read-out: IC50): 0.038 µM

CC1CCN(C)CCN1C(=O)C(Cc1ccccc1)c1ccccc1 (configuration not stated)
Activity [1]: 29.6%
IC50 ([2]; read-out: IC50): > 10 µM
Activity [3]: inactive

CN1CCN(C(=O)C(C)(Cc2ccccc2)c2ccccc2)CC1 (configuration not stated)
Activity [1]: 39.1%
IC50 ([2]; read-out: IC50): > 10 µM

CCN1CCN(C(=O)C(Cc2ccccc2)c2ccccc2)CC1 (configuration not stated)
Activity [1]: 1.8%
IC50 ([2]; read-out: IC50): 0.57 µM

CN1CCC(N2CCN(C(=O)C(Cc3ccccc3)c3ccccc3)CC2)CC1 (configuration not stated)
Activity [1]: inactive

CC(C)CN1CCN(C(=O)C(Cc2ccccc2)c2ccccc2)CC1 (configuration not stated)
Activity [1]: 35.9%
IC50 ([2]; read-out: IC50): > 10 µM
Activity [3]: inactive

O=C(C(Cc1ccccc1)c1ccccc1)N1CCN(CC(F)(F)F)CC1 (configuration not stated)
Activity [1]: inactive

CN1CCN(C(=O)C(Cc2ccccc2)c2ccccc2)C(c2ccccc2)C1 (configuration not stated)
Activity [1]: 17.2%
IC50 ([2]; read-out: IC50): > 10 µM
Activity [3]: inactive

CN1CCN(C(=O)[C@](F)(Cc2ccccc2)c2ccccc2)CC1 (mixture of isomers)
Activity [1]: 2.1%
IC50 ([2]; read-out: IC50): 2.4 µM

CN1C[C@@H]2CN(C(=O)C(Cc3ccccc3)c3ccccc3)C[C@@H]2C1 (some centres not stated)
Activity [1]: 6.7%
IC50 ([2]; read-out: IC50): > 10 µM
Activity [3]: inactive

CN(C)CCN(C)C(=O)C(Cc1ccccc1)c1ccccc1 (configuration not stated)
Activity [1]: 37.1%
IC50 ([2]; read-out: IC50): > 10 µM
Activity [3]: inactive

CCN1CCN(C(=O)C(Cc2ccccc2)c2ccccc2)CC1C (configuration not stated)
Activity [1]: 1.4%
IC50 ([2]; read-out: IC50): 0.26 µM

CCN1CCN(C(=O)C(Cc2ccccc2)c2ccccc2)CC1(C)C (configuration not stated)
Activity [1]: 1.5%
IC50 ([2]; read-out: IC50): 0.09 µM

CN(C)CCOC(=O)C(Cc1ccccc1)c1ccccc1 (configuration not stated)
Activity [1]: 1.5%
IC50 ([2]; read-out: IC50): 0.14 µM

O=C(C(Cc1ccccc1)c1ccccc1)N1CCN(c2ccncc2)CC1 (configuration not stated)
Activity [1]: 28.5%
IC50 ([2]; read-out: IC50): > 10 µM
Activity [3]: inactive

CN(C)CCNC(=O)C(Cc1ccccc1)c1ccccc1 (configuration not stated)
Activity [1]: 3.5%
IC50 ([2]; read-out: IC50): > 10 µM
Activity [3]: inactive

O=C(C(Cc1ccccc1)c1ccccc1)N1CCCNCC1 (configuration not stated)
Activity [1]: 24.3%
IC50 ([2]; read-out: IC50): > 10 µM
Activity [3]: inactive

O=C(C(Cc1ccccc1)c1ccccc1)N1CCNCC1 (configuration not stated)
Activity [1]: 26.1%
IC50 ([2]; read-out: IC50): > 10 µM
Activity [3]: inactive

CC1CN(C(=O)C(Cc2ccccc2)c2ccccc2)CCN1C (configuration not stated)
Activity [1]: 1.4%
IC50 ([2]; read-out: IC50): 0.1 µM

C[N+]1(C)CCN(C(=O)C(Cc2ccccc2)c2ccccc2)CC1 (configuration not stated)
Activity [1]: 8.7%
IC50 ([2]; read-out: IC50): > 10 µM
Activity [3]: inactive

CN1CCN(C(=O)[C@@](F)(Cc2ccccc2)c2ccccc2)CC1 (mixture of isomers)
inhibition [4]: Dose-dependent effect
IC50 [5]: 0.082 µM
IC50 [6]: 0.14 µM
IC50 [7]: > 1.5 µM
IC50 [8]: > 1.5 µM
Activity [1]: 2.7%
IC50 ([2]; read-out: IC50): 0.018 µM

CN1CCN(C(=O)C(F)(Cc2ccccc2)c2ccccc2)CC1 (configuration not stated)
Activity [1]: 3.1%
EC50 [2]: 0.0282 µM
IC50 ([2]; read-out: IC50): 0.029 µM

CN1CCN(C(=O)[C@@H](Cc2ccccc2)c2ccccc2)CC1
Activity [1]: inactive

COCCN1CCN(C(=O)C(Cc2ccccc2)c2ccccc2)CC1 (configuration not stated)
Activity [1]: 10.9%
IC50 ([2]; read-out: IC50): > 10 µM
Activity [3]: inactive

CN1CCN(C(=O)[C@H](Cc2ccccc2)c2ccccc2)CC1
inhibition [4]: Dose-dependent effect
IC50 ([2]; read-out: IC50): 0.033 µM

O=C(C(Cc1ccccc1)c1ccccc1)N1CCN2CCCCC2C1 (configuration not stated)
Activity [1]: 0.5%
IC50 ([2]; read-out: IC50): 2 µM
